The nature of this series: Hydrogen peroxide retention after desiccation and rehydration (peroxide check strips). The settings on record: 1-10 g extract in 20 ml 35% hydrogen peroxide, heated at 80° C. to 5 ml, rehydrated; colorimetric strips. Type of series: physicochemical.

SMILES strings stand for the structures.

As for `Oc1ccc(C=Cc2cc(O)cc(O)c2)cc1` [resveratrol, Resveratrol], the peroxide retention capability entry is on record as “relatively less ability to form stable perhydrates”.

(Values after patent US9192635B2.)
